Tests used:
Carbonic anhydrase 1 = Carbonic anhydrase 1 (Homo sapiens, UniProt P00915)
Description: Inhibition of human recombinant carbonic anhydrase I assessed as inhibition constant incubated for 15 mins by stopped-flow technique

Carbonic anhydrase 9 = Carbonic anhydrase 9 (Homo sapiens, UniProt Q16790)
Description: Inhibition of human recombinant carbonic anhydrase 9 assessed as inhibition constant incubated for 15 mins by stopped-flow technique

Carbonic anhydrase 12 = Carbonic anhydrase 12 (Homo sapiens, UniProt O43570)
Description: Inhibition of human recombinant carbonic anhydrase 12 assessed as inhibition constant incubated for 15 mins by stopped-flow technique

Carbonic anhydrase 2 = Carbonic anhydrase 2 (Homo sapiens, UniProt P00918)
Description: Inhibition of human recombinant carbonic anhydrase 2 assessed as inhibition constant incubated for 15 mins by stopped-flow technique

Carbonic anhydrase 1, sequence (P00915 whole entry): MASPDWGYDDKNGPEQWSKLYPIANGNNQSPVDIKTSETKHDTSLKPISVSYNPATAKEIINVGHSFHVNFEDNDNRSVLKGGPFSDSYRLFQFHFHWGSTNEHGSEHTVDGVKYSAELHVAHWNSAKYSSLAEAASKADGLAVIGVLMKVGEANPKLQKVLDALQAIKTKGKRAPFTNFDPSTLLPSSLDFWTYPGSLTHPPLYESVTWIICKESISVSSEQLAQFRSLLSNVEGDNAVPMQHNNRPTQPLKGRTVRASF
Carbonic anhydrase 12, sequence (O43570 whole entry): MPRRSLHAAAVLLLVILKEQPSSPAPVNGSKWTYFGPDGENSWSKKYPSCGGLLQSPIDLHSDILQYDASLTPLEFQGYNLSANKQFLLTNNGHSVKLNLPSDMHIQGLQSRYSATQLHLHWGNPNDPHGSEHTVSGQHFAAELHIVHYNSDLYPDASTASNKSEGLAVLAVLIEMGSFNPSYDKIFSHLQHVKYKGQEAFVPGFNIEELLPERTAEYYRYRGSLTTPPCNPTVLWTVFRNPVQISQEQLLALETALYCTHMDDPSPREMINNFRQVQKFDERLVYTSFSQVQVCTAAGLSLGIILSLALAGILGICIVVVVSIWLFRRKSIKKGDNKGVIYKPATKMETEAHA

Ki (Carbonic anhydrase 1): 4.21 µM
Ki (Carbonic anhydrase 9): 7.68 µM
Ki (Carbonic anhydrase 12): 8.21 µM
Ki (Carbonic anhydrase 2): 5.97 µM
SMILES: O=C(O)Cc1nnn[nH]1

Source: ChEMBL document CHEMBL6096713, “Tetrazole Is a Novel Zinc Binder Chemotype for Carbonic Anhydrase Inhibition” (ACS Med Chem Lett, 2025)
